Measurements as given in patent US20070286886A1, “Materials And Methods For Inducing Apoptosis In Adipocytes” (University of Tennessee Research Foundation, priority 2004, published 2007).

Legend:
caspase-1 = experiment: Caspase-1 mRNA expression by real-time PCR in 3T3-L1 and UCP2-transfected 3T3-L1 adipocytes; type: cell-based; conditions: DNP 25 μM and 50 μM, 24 h; P<0.05
Method: (§1) 3T3-L1 preadipocytes were incubated at a density of 8000 cells/cm2 (10 cm2 dish) and grown in Dulbecco's modified Eagle's medium (DMEM) containing 10% FBS and antibiotics (adipocyte medium) at 37° C. in 5% CO2 in air. Confluent preadipocytes were induced to differentiate with a standard differentiation medium consisting of DMEM-F10 (1:1, vol/vol) medium supplemented with 1% FBS, 1 μM dexamethasone, IBMX (0.5 mM), and antibiotics (1% penicillin-streptomycin). Preadipocytes were maintained in this differentiation medium for 3 days and subsequently cultured in adipocyte medium. Cultures were re-fed every 2-3 days to allow 90% cells to reach full differentiation before they were chemically treated. Chemicals were freshly diluted in adipocyte medium before treatment. Cells were washed with fresh adipocyte medium, re-fed with medium containing the different treatments, and incubated at 37° C. in 5% CO2 in air before analysis. Cell viability was measured via trypan blue exclusion.
(§2) UCP2 full-length cDNAs were amplified by […] using mRNAs isolated from mouse white adipose tissues. The PCR primers for this amplification are shown as follows: UCP2 forward, 5′-[…]-3′, reverse, 5′-[…]-3′. The PCR products were then subcloned into pcDNA4/His expression vectors. The linearized constructs were transfected into 3T3-L1 preadipocytes using lipofectamine plus standard protocol (Invitrogen, Carlsbad, Calif.). After 48 h of transfection, cells were split and cultured in selective medium containing 400 ug/ml zeocin for the selection of resistant colonies. […]
(§3) Adipocyte caspase-1, caspase-3, Bcl-2, and Bax mRNA were quantitatively measured using a Smart Cycler Real Time PCR System (Cepheid, Sunnyvale, Calif.) with a TaqMan 1000 Core Reagent Kit (Applied Biosystems, Branchburg, N.J.). […] Reactions of quantitative RT-PCR for standards and unknown samples were Cepheid, Sunnyvale, Calif.) and TaqMan Real Time PCR Core Kit. The mRNA quantitation for each sample was further normalized using the corresponding 18 s quantitation, with a forward primer, 5′-[…]-3′, and a reverse primer, 5′-[…]-3′.

caspase-3 = experiment: Caspase-3 mRNA expression by real-time PCR in 3T3-L1 and UCP2-transfected 3T3-L1 adipocytes; type: cell-based
Method: as §1
UCP2 full-length cDNAs were amplified by […] using mRNAs isolated from mouse white adipose tissues. The PCR primers for this amplification are shown as follows: UCP2 forward, 5′-[…]-3′, reverse, 5′-[…]-3′. The PCR products were then subcloned into pcDNA4/His expression vectors. The linearized constructs were transfected into 3T3-L1 preadipocytes using lipofectamine plus standard protocol (Invitrogen, Carlsbad, Calif.). After 48 h of transfection, cells were split and cultured in selective medium containing 400 ug/ml zeocin for the selection of resistant colonies. Cells were fed with selective medium every 3 days until resistant colonies could be identified. These resistant foci were picked, expanded, tested for expression, and frozen for future experiments.
A total cellular RNA isolation kit (Ambion, Austin, Tex.) was used to extract total RNA from 3T3-L1 cells according to the manufacturer's instructions.
Adipocyte caspase-1, caspase-3, Bcl-2, and Bax mRNA were quantitatively measured using a Smart Cycler Real Time PCR System (Cepheid, Sunnyvale, Calif.) with a TaqMan 1000 Core Reagent Kit (Applied Biosystems, Branchburg, N.J.). The primers and probe sets were ordered from Applied Biosystems TaqMan Assays-on-Demand Gene Expression primers and probe set collection according to the manufacturer's instructions. Pooled 3T3-L1 adipocyte total RNA was serial-diluted in the range of 1.5625-25 ng and used to establish a standard curve; total RNAs for unknown samples were also diluted in this range. Reactions of quantitative RT-PCR for standards and unknown samples were Cepheid, Sunnyvale, Calif.) and TaqMan Real Time PCR Core Kit. The mRNA quantitation for each sample was further normalized using the corresponding 18 s quantitation, with a forward primer, 5′-[…]-3′, and a reverse primer, 5′-[…]-3′.
3T3-L1 preadipocytes were incubated at a density of 8000 cells/cm2 (10 cm2 dish) and grown in Dulbecco's modified Eagle's medium (DMEM) containing 10% FBS and antibiotics at 37° C. in 5% CO2. Confluent preadipocytes were induced to differentiate with a standard differentiation medium consisting of DMEM-F 10 (1:1, vol/vol) medium supplemented with 1% FBS, 1 μM dexamethasone, IBMX (0.5 mM) and antibiotics (1% penicillin/streptomycin). Preadipocytes were maintained in this differentiation medium for 3 days and subsequently cultured in adipocyte medium. Cultures were re-fed every 2-3 days to allow 90% cells to reach fully differentiation before conducting chemical treatment. Chemicals were freshly diluted in adipocyte medium before treatment. Cells were washed with fresh adipocyte medium, re-fed with medium containing the different treatments, and incubated at 37° C. in 5% CO2 in air before analysis. Cell viability was measured via trypan blue exclusion.
Adipocytes were incubated with adipocyte medium for 24 h with or without GDP, BK 8644, GDP plus BK8644 before total RNA extraction. […]

Bcl-2/Bax = Bcl-2/Bax expression ratio by real-time PCR in 3T3-L1 and UCP2-transfected 3T3-L1 adipocytes; type: cell-based; conditions: DNP 25 μM and 50 μM, 24 h; P<0.02
Method: as §1, §2, §3

[1] = test system: 3T3-L1 and UCP2-transfected 3T3-L1 cells; experiment: Mitochondrial membrane potential (JC-1 fluorometry) in adipocytes; type: cell-based; conditions: for increase in mitochondrial potential: p<0.05
Method: (§4) Adipocytes were incubated with adipocyte medium for 4 h with or without 1α,25-(OH)2-D3. Mitochondrial membrane potential was analyzed fluorometrically with a lipophilic cationic dye JC-1 (5,5′,6,6′-tetrachloro-1,1′,3,3′-tetraethylbenzimidazol carbocyanine iodide) using a mitochondrial potential detection kit (Biocarta, San Diego, Calif.). Mitochondrial potential was determined as the ratio of red fluorescence (excitation 550 nm, emission 600 nm) and green fluorescence (excitation 485 nm, emission 535 nm) using a fluorescence microplate reader.
as §4, with “GDP, BK 8644, GDP plus BK8644.” for “1α,25-(OH)2-D3.”

[2] = test system: 3T3-L1 and UCP2-transfected 3T3-L1 adipocytes; experiment: Cytosolic/intracellular calcium (fura-2 dual-wavelength fluorescence imaging) in adipocytes; type: cell-based; conditions: 3T3-L1 cells; data not shown
UCP2 = UCP2 expression in 3T3-L1 cells (western blot, UCP2/actin); type: cell-based, mouse; conditions: siRNA transfected 3T3-L1 cells, 48 hrs after transfection
Method: Duplex siRNA corresponding to UCP2 gene was designed and chemically synthesized by Invitrogen. The following gene-specific sequences were used successfully: Si-UCP2 sense 5′-GCCUCUACGACUCUGUCAA-3′ and antisense […]. Transfection of siRNA was performed with Oligofectamine™ reagent (Invitrogen Life Technologies, CA) in 6-well plates. Briefly, Oligofectamine diluted in DMEM was applied to the duplex siRNA mixture, and the formulation was continued for 20 min to allow the Oligofectamine-oligonucleotide complex to form. Per well, 800 μl of plating medium and 10 ul of 20 μM duplex siRNA duplex siRNA formulated with 4 μl of Oligofectamine were applied in a final volume of 1 ml. Cells were then incubated at […] in a CO2 incubator for 4 hrs. […]
Adipocytes were harvested and sonicated in a homogenization buffer containing 50 mM Tris-HCl (PH 7.4), 250 mM sucrose, 1 mM EDTA, 1 mM dithiothreitol, 1% (v/v) Triton X, 10% protease cocktail (Sigma). […] Homogenate intrafranatant protein from equal numbers of cells (determined via protein quantitation using Bradford method as described previously) was boiled in Laemmli sample buffer and subject to 10% SDS-polyacrylamide gel electrophoresis (PAGE). […] Visualization was detected with chemiluminescence reagent, using the Western Blotting Luminal Reagent (Santa Cruz Biotechnology, CA).

[3] = siRNA transfected 3T3-L1 cells (UCP2 ko) vs control

Question: With `O=[N+]([O-])c1ccc(O)c([N+](=O)[O-])c1` [DNP, 2,4-dinitrophenol] as the compound, how does the “basal caspase-1 expression level compared with control cells” value (caspase-1) read?
Answer: The value was “significantly higher”.

Question: What about the “basal caspase-3 expression level compared with control cells” value (caspase-3; DNP 25 μM and 50 μM, 24 h, P<0.05) of the same compound?
Answer: The value was “significantly higher”.

Question: What about the “Bcl-2/Bax ratio versus nontransfected 3T3-L1 cells” value (Bcl-2/Bax) of the same compound?
Answer: The value was “significantly lower”.

Question: How did the “suppression of caspase-3 expression in BK8644 pretreated cells” value (caspase-3; 3T3-L1 cells pretreated with BK8644, p<0.05) turn out when `Nc1nc2c(ncn2[C@@H]2O[C@H](COP(=O)(O)OP(=O)(O)O)[C@@H](O)[C@H]2O)c(=O)[nH]1` [GDP, guanosine 5′-diphosphate] was run?
Answer: The value was 45%.

Question: And the “increase in mitochondrial potential” value ([1]; 100 μM, 3T3-L1 cells, 4 h)?
Answer: Its value is 27%.

Question: And the “increase in mitochondrial potential” value ([1]; 500 μM, 3T3-L1 cells, 4 h)?
Answer: The value was 48%.

Question: What about the mitochondrial potential ([1]; 3T3-L1 cells, GDP) of the same compound?
Answer: The mitochondrial potential was “increased”.

Question: What about the “[Ca2+]i level” value [2] of the same compound?
Answer: The value was “decreased”.

Question: How did the “decrease in caspase-3 expression” value (caspase-3; [3]) turn out when “siRNA: duplex siRNA corresponding to UCP2 gene, sense 5′-GCCUCUACGACUCUGUCAA-3′ (antisense UUGACAGAGUCGAGGC; chemistry not given here)” was run?
Answer: Its value is 58%.

Question: And the “increase in mitochondrial potential” value [1, 3]?
Answer: Its value is 52%.

Question: And the “decrease in UCP2 expression” value (UCP2)?
Answer: The value was 70%.
